Usually MIC stands for the smallest concentration in the dilution series that meets the test's criterion for growth inhibition.

We go through 16 molecules from ChEMBL document CHEMBL4390694, “Benzofuran-isatin hybrids tethered via different length alkyl linkers and their in vitro anti-mycobacterial activities” (Bioorg Med Chem, 2019).

In brackets after ≈: the same amount, converted by molar mass.

This test concerns Mycobacterium tuberculosis. In words: Antimycobacterial activity against multidrug-resistant Mycobacterium tuberculosis assessed as complete inhibition of bacterial growth incubated for 7 days by rapid direct susceptibility test. Type of test: functional. The settings on record: 168 h.

For the molecule `CCOC(=O)c1c(-c2ccc(OC)cc2)oc2ccc(OCCCCN3C(=O)C(=O)c4cc(OC)ccc43)cc12`, the minimal inhibitory concentration (MIC) is 4 µg/mL (≈ 7.36 µM). As for `CCOC(=O)c1c(-c2ccc(F)cc2)oc2ccc(OCCCN3C(=O)C(=O)c4cc(F)ccc43)cc12`, the MIC was found to be 1 µg/mL (≈ 1.98 µM). Consider `CCOC(=O)c1c(-c2ccc(OC)cc2)oc2ccc(OCCCCCCN3C(=O)C(=O)c4cc(F)ccc43)cc12`, for which the MIC came out at 0.125 µg/mL (≈ 0.223 µM).

As for `CCOC(=O)c1c(-c2ccc(OC)cc2)oc2ccc(OCCCCCN3C(=O)C(=O)c4cc(F)ccc43)cc12`, the MIC came to 0.25 µg/mL (≈ 0.458 µM). On to `CCOC(=O)c1c(-c2ccc(F)cc2)oc2ccc(OCCCCCCN3C(=O)C(=O)c4cc(F)ccc43)cc12`, for which the MIC amounted to 0.25 µg/mL (≈ 0.457 µM).

Take `CNC(=O)c1c(-c2ccc(O)cc2)oc2ccc(O)c(CN3CCCCC3)c12`: the minimal inhibitory concentration (MIC) was < 0.06 µg/mL. Turning to `CCOC(=O)c1c(-c2ccc(F)cc2)oc2ccc(OCCCN3C(=O)C(=O)c4ccccc43)cc12`, the minimum inhibitory concentration (MIC) is 1 µg/mL (≈ 2.05 µM). To `CCOC(=O)c1c(-c2ccc(OC)cc2)oc2ccc(OCCCCCCN3C(=O)C(=O)c4ccccc43)cc12` belongs 0.125 µg/mL (≈ 0.231 µM); to `CO[C@H]1/C=C/O[C@@]2(C)Oc3c(C)c(O)c4c(O)c(c(/C=N/N5CCN(C)CC5)c(O)c4c3C2=O)NC(=O)/C(C)=C\C=C\[C@H](C)[C@H](O)[C@@H](C)[C@@H](O)[C@@H](C)[C@H](OC(C)=O)[C@@H]1C` [RIFAMPIN], 64 µg/mL (≈ 77.8 µM); to `CCOC(=O)c1c(-c2ccc(F)cc2)oc2ccc(OCCCCCN3C(=O)C(=O)c4cc(OC)ccc43)cc12`, 1 µg/mL (≈ 1.83 µM). Then `CCOC(=O)c1c(-c2ccc(F)cc2)oc2ccc(OCCCN3C(=O)C(=O)c4cc(OC)ccc43)cc12`, with 2 µg/mL (≈ 3.86 µM). Then `CCOC(=O)c1c(-c2ccccc2)oc2ccc(OCCCN3C(=O)C(=O)c4cc(OC)ccc43)cc12`, with 0.25 µg/mL (≈ 0.5 µM); and `CCOC(=O)c1c(-c2ccc(OC)cc2)oc2ccc(OCCCN3C(=O)C(=O)c4cc(F)ccc43)cc12`, with 0.25 µg/mL (≈ 0.483 µM); and `CCOC(=O)c1c(-c2ccc(OC)cc2)oc2ccc(OCCCCN3C(=O)C(=O)c4ccccc43)cc12`, with 1 µg/mL (≈ 1.95 µM). For the molecule `CCOC(=O)c1c(-c2ccc(OC)cc2)oc2ccc(OCCCN3C(=O)C(=O)c4ccccc43)cc12`, the MIC turned out to be 1 µg/mL (≈ 2 µM). As for `NNC(=O)c1ccncc1` [ISONIAZID], the minimal inhibitory concentration (MIC) was > 128 µg/mL.
